The text below walks through data of patent US20140023611A1 (priority 2010, published 2014).

Structures are written as SMILES. Where two headings read alike, the source gives them in different places.

For series [1] the following is noted: human absorption data, common drugs; cited from earlier work.
The target of the next series is T1, rat NaP2b (SLC34A2) (Rattus norvegicus, UniProt Q9JJ09).
T1 construct: host or cells: HEK293
T1 sequence (Q9JJ09 1-695): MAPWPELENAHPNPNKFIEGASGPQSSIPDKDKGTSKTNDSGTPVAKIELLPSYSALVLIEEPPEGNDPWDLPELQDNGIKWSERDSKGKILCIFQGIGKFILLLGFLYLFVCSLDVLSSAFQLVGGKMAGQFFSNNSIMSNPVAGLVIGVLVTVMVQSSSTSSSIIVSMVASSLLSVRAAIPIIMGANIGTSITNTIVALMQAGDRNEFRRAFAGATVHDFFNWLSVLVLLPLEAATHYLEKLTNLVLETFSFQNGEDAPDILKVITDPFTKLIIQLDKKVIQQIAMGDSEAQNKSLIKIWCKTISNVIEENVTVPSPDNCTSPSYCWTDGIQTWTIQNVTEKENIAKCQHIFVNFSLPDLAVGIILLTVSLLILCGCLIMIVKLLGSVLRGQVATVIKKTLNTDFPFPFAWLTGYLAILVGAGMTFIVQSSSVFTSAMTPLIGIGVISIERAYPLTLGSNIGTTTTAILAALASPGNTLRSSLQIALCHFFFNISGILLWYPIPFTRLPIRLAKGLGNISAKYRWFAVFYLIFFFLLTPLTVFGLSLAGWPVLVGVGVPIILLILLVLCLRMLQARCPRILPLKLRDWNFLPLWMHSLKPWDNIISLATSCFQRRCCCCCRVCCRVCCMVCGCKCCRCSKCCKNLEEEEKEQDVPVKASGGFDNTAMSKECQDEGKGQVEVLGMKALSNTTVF
Put plainly: NaP2b-mediated Pi transport (33P uptake) in transfected HEK293 cells, rat NaP2b. It counts as cell-based. As to conditions: Table 2. As to the method:
HEK293 cells were obtained from the American Type Culture collection and propagated per their instructions. Expression clones for rat and human NaP2b (SLC34A2) were obtained from Open Biosystems (Catalog numbers MRN1768-9510282, and MHS1010-99823026, respectively). The sequence of the human protein was mutated to insert a threonine after residue 37, and to introduce a N39D mutation.
The rate of phosphate (Pi) uptake into HEK293 cells was measured using a modification of the method described by Mohrmann et al. (Mohrmann, I., Mohrmann, M., Biber, J., and Murer, H. (1986) Am. J. Phys. 250(3 Pt 1):G323-30.) Transfected HEK293 cells were treated with a pharmacological agent to minimize endogenous PiT-mediated phosphate transport activity, such that the only remaining sodium-dependent phosphate transport activity is that which was bestowed by introduction of the NaP2b genes.
(§1) Cells were seeded into 96-well plates at 25,000 cells/well and cultured overnight. Lipofectamine 2000 (Invitrogen) was used to introduce the NaP2b cDNA, and the cells were allowed to approach confluence during a second overnight incubation. […] Cells were then overlayed with either choline uptake buffer or sodium uptake buffer (14 mM Tris, 137 mM sodium chloride, 5.4 mM KCl, 2.8 mM CaCl2, 1.2 mM MgSO4, 100 uM KH2PO4, PiT-silencing agent, 1 mg/mL Bovine Serum Albumin, pH 7.4) containing 6-9 uCi/mL ^33P orthophosphoric acid (Perkin Elmer) and test compound. Each compound was tested at twelve concentrations ranging from 0.1 nM to 30 uM. Assays were run in duplicate.
After incubation for 3-30 minutes at room temperature, assay mixtures were removed, and the cells were washed twice with ice cold stop solution (137 mM sodium chloride, 14 mM Tris, pH 7.4). Cells were lysed by addition of 20 μL 0.1% Tween 80 followed by 100 μL scintillation fluid, and counted using a TopCount (Perkin Elmer).
pIC50 (the negative log of the IC50) values of the test compounds were calculated using GraphPad Prism.
HEK293 cells were obtained from the American Type Culture collection and propagated per their instructions. Expression clones for rat and mouse NaP2b (SLC34A2) cDNAs were obtained from Open Biosystems (Catalog numbers MRN1768-9510282 and MMM1013-98478398 respectively).
The rate of phosphate uptake into HEK293 cells was measured using a modification of the method described by Mohrmann et al. (Mohrmann, I., Mohrmann, M., Biber, J., and Murer, H. (1986) Am. J. Phys. 250(3 Pt 1):G323-30.) Transfected HEK293 cells were treated with a pharmacological agent to minimize endogenous PiT-mediated phosphate transport activity, such that the only remaining sodium-dependent phosphate transport activity is that which was bestowed by introduction of the NaP2b genes.
as §1, with “agent, 0.1% wt/v bovine serum albumin,” for “agent, 1 mg/mL Bovine Serum Albumin,”, “Each compounds” for “Each compound”
After incubation for 3-30 minutes at room temperature, assay mixtures were removed, and the cells were washed twice with ice cold stop solution (137 mM sodium chloride, 14 mM Tris, pH 7.4).

Setting [2] is: Structure (V) examples, rat NaP2b, HEK293, read-out: pIC50 Range (converted).

As for `OC[C@H]1O[C@@H](O[C@@H]2[C@@H](CO)OC(O)(CO)[C@H]2O)[C@H](O)[C@@H](O)[C@H]1O` (mixture of isomers) [lactulose], in series [1], the “% FA” value is recorded as 0.6%.

For the compound `O=C(CCOCCOCCOCCOCCOCCOCCOCCOCCSCc1cccc(C(=O)Nc2ccc(N3CCCCC3)cc2C(=O)N/N=C/c2ccc(Cl)c(C(F)(F)F)c2)c1)N[C@H]1C(O)O[C@H](CO)[C@@H](O)[C@@H]1O` (stereo partly shown) [Ex. 28], the IC50 on rat NaP2b (SLC34A2) (setting [2]) is 10000 to 100000 nM.

`O=C(O)CCOCCOCCOCCOCCOCCOCCOCCOCCSCc1cccc(C(=O)Nc2ccc(Cl)cc2C(=O)N/N=C/c2ccc(Cl)c(C(F)(F)F)c2)c1` [Ex. 29]: the IC50 at rat NaP2b (SLC34A2) (setting [2]) was 100 to 794 nM.

For the compound `O=C(Nc1ccc(Cl)cc1C(=O)N/N=C/c1ccc(Cl)c(C(F)(F)F)c1)c1cccc(Cn2cc(CCO)nn2)c1` [Ex. 30], the IC50 on rat NaP2b (SLC34A2) (setting [2]) is 10 to 79.4 nM.

On to `O=C(Nc1ccc(N2CCCCC2)cc1C(=O)N/N=C/c1ccc(Cl)c(C(F)(F)F)c1)c1cccc(C#CCCO)c1` [Ex. 31], for which the IC50 at rat NaP2b (SLC34A2) (setting [2]) is 10 to 79.4 nM.

Take `[N-]=[N+]=NCCOCCOCCOCCNCc1cccc(C(=O)Nc2ccc(N3CCCCC3)cc2C(=O)N/N=C/c2ccc(Cl)c(C(F)(F)F)c2)c1` [Ex. 32]: at rat NaP2b (SLC34A2) (setting [2]), the IC50 is 100 to 794 nM.

On to `[N-]=[N+]=NCCOCCOCCOCCNC(=O)CCSCc1cccc(C(=O)Nc2ccc(N3CCCCC3)cc2C(=O)N/N=C/c2ccc(Cl)c(C(F)(F)F)c2)c1` [Ex. 33], for which, on rat NaP2b (SLC34A2) (setting [2]), the IC50 was 100 to 794 nM.

Turning to `[N-]=[N+]=NCCOCCOCCOCCNC(=O)C1CCN(Cc2cccc(C(=O)Nc3ccc(N4CCCCC4)cc3C(=O)N/N=C/c3ccc(Cl)c(C(F)(F)F)c3)c2)CC1` [Ex. 34], at rat NaP2b (SLC34A2) (setting [2]), the IC50 was 100 to 794 nM.

Take `CC(=O)N[C@@H](CCCCNC(=O)CCSCc1cccc(C(=O)Nc2ccc(N3CCCCC3)cc2C(=O)N/N=C/c2ccc(Cl)c(C(F)(F)F)c2)c1)C(=O)O` [Ex. 35]: the IC50 on rat NaP2b (SLC34A2) (setting [2]) is 1000 to 7940 nM.

On to `O=C(Nc1ccc(N2CCCCC2)cc1C(=O)N/N=C/c1ccc(Cl)c(C(F)(F)F)c1)c1cccc(Cc2nc(CCO)cs2)c1` [Ex. 45, (E)-N-(2-(2-(4-chloro-3-(trifluoromethyl)benzylidene)hydrazine-carbonyl)-4-(piperidin-1-yl)phenyl)-3-((4-(2-hydroxyethyl)thiazol-2-yl)methyl)benzamide], for which the IC50 at rat NaP2b (SLC34A2) (setting [2]) is 100 to 794 nM.

As to `O=C(CCSCc1cccc(C(=O)Nc2ccc(N3CCCCC3)cc2C(=O)N/N=C/c2ccc(Cl)c(C(F)(F)F)c2)c1)Nc1ccc(B(O)O)cc1` [Ex. 46, (E)-4-(3-(3-(2-(2-(4-chloro-3-(trifluoromethyl)benzylidene)hydrazinecarbonyl)-4-(piperidin-1-yl)phenylcarbamoyl)benzylthio)propanamido)phenylboronic acid], the IC50 on rat NaP2b (SLC34A2) (setting [2]) is 100 to 794 nM.

With `COCCNC(=O)CC[S+]([O-])Cc1cccc(C(=O)Nc2ccc(N3CCCCC3)cc2C(=O)N/N=C/c2ccc(Cl)c(C(F)(F)F)c2)c1` (stereo not shown) [Ex. 51, (E)-N-(2-(2-(4-chloro-3-(trifluoromethyl)benzylidene)hydrazinecarbonyl)-4-(piperidin-1-yl)phenyl)-3-((3-(2-methoxyethylamino)-3-oxopropylsulfinyl)methyl)benzamide], on rat NaP2b (SLC34A2) (setting [2]), the IC50 was 100 to 794 nM.

For `O=C(Nc1ccc(N2CCCCC2)cc1C(=O)N/N=C/c1ccc(Cl)c(C(F)(F)F)c1)c1cccc(Cn2cc(CO)nn2)c1` [Example 8], at rat NaP2b (SLC34A2) (setting [2]), the IC50 was 100 to 794 nM.

Regarding `NCc1cn(Cc2cccc(C(=O)Nc3ccc(N4CCCCC4)cc3C(=O)N/N=C/c3ccc(Cl)c(C(F)(F)F)c3)c2)nn1` [Example 10], the IC50 at rat NaP2b (SLC34A2) (setting [2]) was 1000 to 7940 nM.

For the compound `NC(Cc1cn(Cc2cccc(C(=O)Nc3ccc(N4CCCCC4)cc3C(=O)N/N=C/c3ccc(Cl)c(C(F)(F)F)c3)c2)nn1)C(=O)O` (stereo not shown) [Example 11], the IC50 on rat NaP2b (SLC34A2) (setting [2]) was 1000 to 7940 nM.

Turning to `O=C(O)CCSCc1cccc(C(=O)Nc2ccc(N3CCCCC3)cc2C(=O)Nc2cnc(-c3cccc(C(F)(F)F)c3)cn2)c1` [Example 12], the IC50 at rat NaP2b (SLC34A2) (Structure (III) examples, HEK293, 0.1 mM phosphate, read-out: pIC50 range for rat Nap2b (converted)) is 1000 to 7940 nM.

Consider `O=C(O)c1ccc(-c2cn(Cc3cccc(C(=O)Nc4ccc(N5CCCCC5)cc4C(=O)N/N=C/c4ccc(Cl)c(C(F)(F)F)c4)c3)nn2)cc1` [Example 12], for which the IC50 at rat NaP2b (SLC34A2) (setting [2]) was 100 to 794 nM.

As to `NCCOCCOCCOCCc1cn(Cc2cccc(C(=O)Nc3ccc(N4CCCCC4)cc3C(=O)N/N=C/c3ccc(Cl)c(C(F)(F)F)c3)c2)nn1` [Example 25], at rat NaP2b (SLC34A2) (setting [2]), the IC50 is 1000 to 7940 nM.

In the case of `O=C(Nc1ccc(N2CCCCC2)cc1C(=O)N/N=C/c1ccc(Cl)c(C(F)(F)F)c1)c1cccc(Cn2cc(CCCP(=O)(O)O)nn2)c1` [Example 26], on rat NaP2b (SLC34A2) (setting [2]), the IC50 was 10000 to 100000 nM.

As to `C=CCc1ccccc1OCC(O)CNC(C)C` (stereo not shown) [alprenolol], the “% FA” value in series [1] is 96%.

Take `O=C(O)P(=O)(O)O` [foscarnet]: the “% FA” value in series [1] is recorded as 17%.

`OC[C@@H](O)[C@@H](O)[C@H](O)[C@H](O)CO` [mannitol]: the “% FA” value in series [1] is given as 26%.

As to `Cc1ccccc1N1C(=O)c2cc(S(N)(=O)=O)c(Cl)cc2NC1C` (stereo not shown) [metolazone], in series [1], the “% FA” value is reported as 64%.

In the case of `O=C(O)c1cc(/N=N/c2ccc(O)c(C(=O)O)c2)ccc1O` [olsalazine], the “% FA” value in series [1] is on record as 2.3%.

As to `C=CCOc1ccccc1OCC(O)CNC(C)C` (stereo not shown) [oxprenolol], the “% FA” value in series [1] is listed as 97%.

Regarding `CC(C)NCC(O)COc1cccc2[nH]ccc12` (stereo not shown) [pindolol], the “% FA” value in series [1] is listed as 92%.

For `CC(=O)Nc1ccc(OCC(O)CNC(C)C)cc1` (stereo not shown) [practolol], in series [1], the “% FA” value is given as 95%.

Regarding `OC[C@H]1O[C@H](OC[C@H]2O[C@H](O[C@]3(CO)O[C@H](CO)[C@@H](O)[C@@H]3O)[C@H](O)[C@@H](O)[C@@H]2O)[C@H](O)[C@@H](O)[C@H]1O` [raffinose], the “% FA” value in series [1] is 0.3%.

As for `O=C(O)c1cc(/N=N/c2ccc(S(=O)(=O)Nc3ccccn3)cc2)ccc1O` [sulfasalazine], the “% FA” value in series [1] is recorded as 12%.

For `CCN1CCCC1CNC(=O)c1cc(S(N)(=O)=O)ccc1OC` (stereo not shown) [sulpiride], in series [1], the “% FA” value is recorded as 36%.

Turning to `NC[C@H]1CC[C@H](C(=O)O)CC1` [tranexamic acid], the “% FA” value in series [1] is 55%.
